Source: ChEMBL document CHEMBL1128798, “The in vitro cytotoxicity and DNA alkylating ability of the simplest functional analogues of the seco CC-1065 alkylating subunit” (Bioorg Med Chem Lett, 1995)
pIC50: −log10 of the molar value.

What was measured:
HeLa = assay: Tested in vitro for cytotoxicity against He La cell line in human cervical carcinoma; assay type: functional
MM96L = assay: Tested in vitro for cytotoxicity against MM96L cell line in human melanoma; assay type: functional
Nucleic Acid = assay: Compound was tested in vitro for DNA alkylation intensity; value is given as; assay type: functional
B16 [1] = assay: Tested in vitro for cytotoxicity against B16 cell line in murine melanoma activity expressed in IC50; assay type: functional, cell-based; conditions: Mus musculus
MM418 = assay: Tested in vitro for cytotoxicity against MM418c15a cell line in human melanoma with high melanin content; assay type: functional
B16 [2] = assay: Tested in vitro for cytotoxicity against B16 cell line in murine melanoma; assay type: functional, Mus musculus
CI80-13S cell line = assay: Tested in vitro for cytotoxicity against CI80-13S cell line in DNA cross-linking resistant human ovarian carcinoma; assay type: functional

Q: For `Oc1cccc(CCBr)c1`, which Cytotoxicity (HeLa) is on record?
A: 75 µM

Q: What about the Cytotoxicity (MM96L) of the same molecule?
A: 60 µM

Q: `OCCc1cccc(O)c1` was tested. Which Cytotoxicity (HeLa) did it give?
A: 7530 µM

Q: What about the Cytotoxicity (MM96L) of the same molecule?
A: 2530 µM

Q: `Oc1ccc(CCI)cc1` was tested. Which Cytotoxicity (HeLa) did it give?
A: 33 µM

Q: What about the Cytotoxicity (MM96L) of the same molecule?
A: 43 µM

Q: What about the DNA alkylation (Nucleic Acid) of the same molecule?
A: value is given as

Q: Which results are given for `Oc1ccc(CCCl)cc1`?
A: Cytotoxicity (HeLa): 32 µM; Cytotoxicity (MM96L): 42 µM

Q: With `COc1ccc(CCCl)cc1` as the molecule, how does the Cytotoxicity (HeLa) read?
A: 670 µM

Q: What about the Cytotoxicity (MM96L) of the same molecule?
A: 1970 µM

Q: With `Oc1ccc(CCBr)cc1` as the molecule, how does the pIC50 (B16 [1]) read?
A: 4.49

Q: And the Cytotoxicity (HeLa)?
A: 18 µM

Q: What about the Cytotoxicity (MM96L) of the same molecule?
A: 16 µM

Q: What about the Cytotoxicity (MM418) of the same molecule?
A: 25 µM

Q: And the DNA alkylation (Nucleic Acid)?
A: value is given as

Q: What about the Cytotoxicity (B16 [2]) of the same molecule?
A: 44 µM

Q: What about the Cytotoxicity (CI80-13S cell line) of the same molecule?
A: 27 µM

Q: What does the source list for `COc1ccc(CCI)cc1`?
A: Cytotoxicity (HeLa): 22 µM; Cytotoxicity (MM96L): 25 µM

Q: What does the source list for `OCCc1ccc(O)cc1` [TYROSOL]?
A: Cytotoxicity (HeLa): 1420 µM; Cytotoxicity (MM96L): 905 µM

Q: With `CS(C)(=O)=O` [DIMETHYL SULFONE] as the molecule, how does the Cytotoxicity (HeLa) read?
A: 35 µM

Q: And the Cytotoxicity (MM96L)?
A: 56 µM

Q: What about the Cytotoxicity (MM418) of the same molecule?
A: 58 µM

Q: What about the Cytotoxicity (CI80-13S cell line) of the same molecule?
A: 59 µM

Q: With `COc1ccc(CCBr)cc1` as the molecule, how does the Cytotoxicity (HeLa) read?
A: 220 µM

Q: And the Cytotoxicity (MM96L)?
A: 520 µM

Q: How did the Cytotoxicity (HeLa) turn out when `Oc1cccc(CCI)c1` was run?
A: 19 µM

Q: What about the Cytotoxicity (MM96L) of the same molecule?
A: 20 µM

Q: How did the Cytotoxicity (HeLa) turn out when `Oc1cccc(CCCl)c1` was run?
A: 450 µM

Q: And the Cytotoxicity (MM96L)?
A: 450 µM

Q: What does the source list for `COc1ccc(CCO)cc1`?
A: Cytotoxicity (HeLa): 4420 µM; Cytotoxicity (MM96L): 3330 µM
